In PubChem BioAssay (NCI):
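A five-concentration, 48-hour dose response in 96-well plates underlies each endpoint, interpolated linearly between surrounding concentrations. TGI: total growth inhibition.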

system: SF-295 CNS; assay: inhibition of tumour cell growth, NCI panel, 48 h

Question: `CCOC(=O)CCC(NC(=O)Cc1ccc(Nc2nc3cc(F)c(F)cc3nc2C(=O)OCC)cc1)C(=O)OCC` (configuration not stated) was tested. Which TGI did it give?
Answer: The TGI was > 100 µM.

Question: With `[N-]=[N+]=Nc1c([N+](=O)[O-])c(=O)n(-c2ccccc2)c2ccccc12` as the molecule, how does the TGI read?
Answer: Its TGI is 95.5 µM.

Question: How did the TGI turn out when `O=[N+]([O-])c1ccc2[nH]c(=S)[nH]c(=S)c2c1` was run?
Answer: The TGI was > 100 µM.

system: CCRF-CEM leukemia; assay: inhibition of tumour cell growth, NCI panel, 48 h

Question: With `O=c1oc2ccc3ccccc3c2cc1-c1nc2ccccc2s1` as the molecule, how does the TGI read?
Answer: The TGI was > 100 µM.

Question: How did the TGI turn out when `COC[C@@H](N=CC(C)(C)C)C(C)C` was run?
Answer: The TGI was > 100 µM.

Question: Which TGI does the source give for `CC(C)(C)OC(=O)NC1CCCCC1NC(=O)C(=O)NC1CCCCC1NC(=O)OC(C)(C)C` (configuration not stated) here?
Answer: Its TGI is > 100 µM.

Question: With `COc1cc(OC)c2nc(C)c(CCCl)c(Cl)c2c1` as the molecule, how does the TGI read?
Answer: The TGI was > 100 µM.

Question: `COc1cc(C2c3cc4c(cc3OC(N3CCCCC3)C2C)OCO4)cc(OC)c1O` (configuration not stated) was tested. Which TGI did it give?
Answer: Its TGI is 25.1 µM.

Question: How did the TGI turn out when `O=C(/C=C/c1ccccc1)CCC1C(=O)c2ccccc2C1=O` was run?
Answer: The TGI was > 100 µM.

Question: With `Brc1ccc2[nH]cc(-c3csc(-c4c[nH]c5ccccc45)n3)c2c1` as the molecule, how does the TGI read?
Answer: The TGI was 5.89 µM.

Question: For `COc1cc(OC)cc(Oc2nc3ccccc3nc2C(F)(F)F)c1`, which TGI is on record?
Answer: Its TGI is > 100 µM.

Question: Which TGI does the source give for `CCOC(=O)CCC(NC(=O)Cc1ccc(Nc2nc3cc(F)c(F)cc3nc2C(=O)OCC)cc1)C(=O)OCC` (configuration not stated) here?
Answer: The TGI was 46.9 µM.

Question: With `[N-]=[N+]=Nc1c([N+](=O)[O-])c(=O)n(-c2ccccc2)c2ccccc12` as the molecule, how does the TGI read?
Answer: Its TGI is 92.4 µM.

Question: For `O=[N+]([O-])c1ccc2[nH]c(=S)[nH]c(=S)c2c1`, which TGI is on record?
Answer: Its TGI is > 100 µM.

system: HS 578T breast; assay: inhibition of tumour cell growth, NCI panel, 48 h

Question: How did the TGI turn out when `O=c1oc2ccc3ccccc3c2cc1-c1nc2ccccc2s1` was run?
Answer: Its TGI is > 100 µM.

Question: How did the TGI turn out when `COC[C@@H](N=CC(C)(C)C)C(C)C` was run?
Answer: Its TGI is > 100 µM.

Question: For `CC(C)(C)OC(=O)NC1CCCCC1NC(=O)C(=O)NC1CCCCC1NC(=O)OC(C)(C)C` (configuration not stated), which TGI is on record?
Answer: Its TGI is 57.1 µM.

Question: How did the TGI turn out when `COc1cc(OC)c2nc(C)c(CCCl)c(Cl)c2c1` was run?
Answer: Its TGI is > 100 µM.

Question: Which TGI does the source give for `COc1cc(C2c3cc4c(cc3OC(N3CCCCC3)C2C)OCO4)cc(OC)c1O` (configuration not stated) here?
Answer: The TGI was 31.8 µM.

Question: `O=C(/C=C/c1ccccc1)CCC1C(=O)c2ccccc2C1=O` was tested. Which TGI did it give?
Answer: Its TGI is > 100 µM.

Question: `Brc1ccc2[nH]cc(-c3csc(-c4c[nH]c5ccccc45)n3)c2c1` was tested. Which TGI did it give?
Answer: The TGI was > 47.9 µM.

Question: Which TGI does the source give for `COc1cc(OC)cc(Oc2nc3ccccc3nc2C(F)(F)F)c1` here?
Answer: Its TGI is > 100 µM.

Question: `CCOC(=O)CCC(NC(=O)Cc1ccc(Nc2nc3cc(F)c(F)cc3nc2C(=O)OCC)cc1)C(=O)OCC` (configuration not stated) was tested. Which TGI did it give?
Answer: Its TGI is > 100 µM.

Question: `[N-]=[N+]=Nc1c([N+](=O)[O-])c(=O)n(-c2ccccc2)c2ccccc12` was tested. Which TGI did it give?
Answer: The TGI was 72.1 µM.

Question: With `O=[N+]([O-])c1ccc2[nH]c(=S)[nH]c(=S)c2c1` as the molecule, how does the TGI read?
Answer: Its TGI is > 100 µM.

system: OVCAR-4 ovarian; assay: inhibition of tumour cell growth, NCI panel, 48 h

Question: `O=c1oc2ccc3ccccc3c2cc1-c1nc2ccccc2s1` was tested. Which TGI did it give?
Answer: The TGI was > 100 µM.

Question: Which TGI does the source give for `COC[C@@H](N=CC(C)(C)C)C(C)C` here?
Answer: The TGI was > 100 µM.

Question: How did the TGI turn out when `CC(C)(C)OC(=O)NC1CCCCC1NC(=O)C(=O)NC1CCCCC1NC(=O)OC(C)(C)C` (configuration not stated) was run?
Answer: Its TGI is > 100 µM.

Question: Which TGI does the source give for `COc1cc(OC)c2nc(C)c(CCCl)c(Cl)c2c1` here?
Answer: The TGI was > 100 µM.

Question: `COc1cc(C2c3cc4c(cc3OC(N3CCCCC3)C2C)OCO4)cc(OC)c1O` (configuration not stated) was tested. Which TGI did it give?
Answer: The TGI was > 61.2 µM.

Question: Which TGI does the source give for `O=C(/C=C/c1ccccc1)CCC1C(=O)c2ccccc2C1=O` here?
Answer: The TGI was > 100 µM.

Question: For `Brc1ccc2[nH]cc(-c3csc(-c4c[nH]c5ccccc45)n3)c2c1`, which TGI is on record?
Answer: Its TGI is 28.1 µM.

Question: Which TGI does the source give for `COc1cc(OC)cc(Oc2nc3ccccc3nc2C(F)(F)F)c1` here?
Answer: The TGI was > 100 µM.

Question: For `CCOC(=O)CCC(NC(=O)Cc1ccc(Nc2nc3cc(F)c(F)cc3nc2C(=O)OCC)cc1)C(=O)OCC` (configuration not stated), which TGI is on record?
Answer: Its TGI is > 100 µM.

Question: Which TGI does the source give for `[N-]=[N+]=Nc1c([N+](=O)[O-])c(=O)n(-c2ccccc2)c2ccccc12` here?
Answer: The TGI was 49.4 µM.

Question: With `O=[N+]([O-])c1ccc2[nH]c(=S)[nH]c(=S)c2c1` as the molecule, how does the TGI read?
Answer: Its TGI is > 100 µM.

system: NCI-H522 lung; assay: inhibition of tumour cell growth, NCI panel, 48 h

Question: How did the TGI turn out when `O=c1oc2ccc3ccccc3c2cc1-c1nc2ccccc2s1` was run?
Answer: The TGI was > 100 µM.

Question: Which TGI does the source give for `COC[C@@H](N=CC(C)(C)C)C(C)C` here?
Answer: The TGI was > 100 µM.

Question: With `CC(C)(C)OC(=O)NC1CCCCC1NC(=O)C(=O)NC1CCCCC1NC(=O)OC(C)(C)C` (configuration not stated) as the molecule, how does the TGI read?
Answer: The TGI was > 100 µM.

Question: Which TGI does the source give for `COc1cc(OC)c2nc(C)c(CCCl)c(Cl)c2c1` here?
Answer: Its TGI is > 100 µM.

Question: How did the TGI turn out when `COc1cc(C2c3cc4c(cc3OC(N3CCCCC3)C2C)OCO4)cc(OC)c1O` (configuration not stated) was run?
Answer: The TGI was 22.2 µM.

Question: With `O=C(/C=C/c1ccccc1)CCC1C(=O)c2ccccc2C1=O` as the molecule, how does the TGI read?
Answer: Its TGI is > 100 µM.

Question: How did the TGI turn out when `Brc1ccc2[nH]cc(-c3csc(-c4c[nH]c5ccccc45)n3)c2c1` was run?
Answer: The TGI was 3.53 µM.

Question: Which TGI does the source give for `COc1cc(OC)cc(Oc2nc3ccccc3nc2C(F)(F)F)c1` here?
Answer: The TGI was > 100 µM.

Question: How did the TGI turn out when `CCOC(=O)CCC(NC(=O)Cc1ccc(Nc2nc3cc(F)c(F)cc3nc2C(=O)OCC)cc1)C(=O)OCC` (configuration not stated) was run?
Answer: The TGI was > 100 µM.

Question: How did the TGI turn out when `[N-]=[N+]=Nc1c([N+](=O)[O-])c(=O)n(-c2ccccc2)c2ccccc12` was run?
Answer: The TGI was > 100 µM.

Question: How did the TGI turn out when `O=[N+]([O-])c1ccc2[nH]c(=S)[nH]c(=S)c2c1` was run?
Answer: Its TGI is > 100 µM.

system: DU-145 prostate; assay: inhibition of tumour cell growth, NCI panel, 48 h

Question: With `O=c1oc2ccc3ccccc3c2cc1-c1nc2ccccc2s1` as the molecule, how does the TGI read?
Answer: Its TGI is > 100 µM.

Question: With `COC[C@@H](N=CC(C)(C)C)C(C)C` as the molecule, how does the TGI read?
Answer: Its TGI is > 100 µM.

Question: For `CC(C)(C)OC(=O)NC1CCCCC1NC(=O)C(=O)NC1CCCCC1NC(=O)OC(C)(C)C` (configuration not stated), which TGI is on record?
Answer: The TGI was > 100 µM.

Question: Which TGI does the source give for `COc1cc(OC)c2nc(C)c(CCCl)c(Cl)c2c1` here?
Answer: The TGI was > 100 µM.

Question: Which TGI does the source give for `COc1cc(C2c3cc4c(cc3OC(N3CCCCC3)C2C)OCO4)cc(OC)c1O` (configuration not stated) here?
Answer: Its TGI is 49.6 µM.
